Data reported in patent publication US9765056B2, “Indole and pyrrole compounds, a process for their preparation and pharmaceutical compositions containing them” (LES LABORATOIRES SERVIER, priority 2013, dated 2017).
Counter-ions that a name gives are not always drawn.

Legend:
[1] = biological target: Bcl-2 protein (histag-Bcl-2, UniProtKB P10415) (Homo sapiens (Human), UniProt P10415); assay: Inhibition of Bcl-2 by the fluorescence polarisation technique; format: binding; settings: for IC50: fluorescence polarisation test, method A, or method B where underlined (underlining not visible), read-out: IC50 (nM) Bcl-2 FP
Chain of Bcl-2 protein (P10415 whole entry): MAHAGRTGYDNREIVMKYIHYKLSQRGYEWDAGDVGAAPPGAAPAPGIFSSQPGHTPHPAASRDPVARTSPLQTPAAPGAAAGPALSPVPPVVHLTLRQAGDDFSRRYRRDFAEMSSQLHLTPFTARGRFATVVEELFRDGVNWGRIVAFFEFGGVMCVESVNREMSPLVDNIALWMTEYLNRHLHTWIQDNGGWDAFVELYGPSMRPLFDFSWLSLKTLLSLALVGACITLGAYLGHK
Source text: Inhibition of Bcl-2 by the fluorescence polarisation technique

[2] = tested on: RS4;11 leukaemia tumour line; assay: In vitro cytotoxicity, Microculture Tetrazolium Assay (MTT); format: cell-based; settings: RS4;11 cells, 48 hours exposure
Description: The cytotoxicity studies were carried out on the RS4;11 leukaemia tumour line.
The cells are distributed onto microplates and exposed to the test compounds for 48 hours. The cell viability is then quantified by a colorimetric assay, the Microculture Tetrazolium Assay (Cancer Res., 1987, 47, 939-942).

SMILES	IC50 [1] [nM]	IC50 ([2]; Homo sapiens) [nM]	IC50 [2] [nM]	inhibition at 22.2 µM ([1]; @22.2 μM test compound, partial inhibitor, read-out: percentage fluorescence polarisation inhibition (Bcl-2 FP)) [%]
CC(C)c1ccc(N(C(=O)c2cn(-c3cc4c(cc3C(=O)N3Cc5ccccc5C[C@H]3CN3CCN(C)CC3)OCO4)c3ccccc23)c2ccc(O)c(Cl)c2)cc1 [Example 64, N-(3-Chloro-4-hydroxyphenyl)-1-(6-{[(3S)-3-[(4-methylpiperazin-1-yl)methyl]-3,4-dihydroisoquinolin-2(1H)-yl]carbonyl}-1,3-benzodioxol-5-yl)-N-[4-(propan-2-yl)phenyl]-1H-indole-3-carboxamide hydrochloride]	296	1360		
CN1CCN(C[C@@H]2Cc3ccccc3CN2C(=O)c2ccc(Cl)cc2-n2cc(C(=O)N(c3ccccc3)c3ccccc3)c3ccccc32)CC1 [Example 178, 1-{5-Chloro-2-[(3S)-3-[(4-methylpiperazin-1-yl)methyl]-1,2,3,4-tetrahydroisoquinoline-2-carbonyl]phenyl}-N,N-diphenyl-1H-indole-3-carboxamide dihydrochloride]	17.5	812		
COc1cc(-n2cc(C(=O)N(c3ccccc3)c3ccc4[nH]ccc4c3)c3ccccc32)c(C(=O)N2Cc3ccccc3C[C@H]2CN2CCN(C)CC2)cc1O [Example 198, 1-{4-Hydroxy-5-methoxy-2-[(3S)-3-[(4-methylpiperazin-1-yl)methyl]-1,2,3,4-tetrahydroisoquinoline-2-carbonyl]phenyl}-N-(1H-indol-5-yl)-N-phenyl-1H-indole-3-carboxamide]	3.4	616		
COc1ccc(C(=O)N2Cc3ccccc3C[C@H]2CN)c(-n2nc(C(=O)N(c3ccccc3)c3ccccc3)c3ccccc32)c1 [Example 150, 1-{2-[(3S)-3-(Aminomethyl)-1,2,3,4-tetrahydroisoquinoline-2-carbonyl]-5-methoxyphenyl}-N,N-diphenyl-1H-indazole-3-carboxamide]	51	1320		
Cc1cc(C(=O)N(c2ccc(O)cc2)c2ccc3[nH]ccc3c2)cn1-c1cc(Br)ccc1C(=O)N1Cc2ccccc2C[C@H]1CN1CCN(C2CCC2)CC1 [Example 102, 1-(5-Bromo-2-{[(3S)-3-[(4-cyclobutylpiperazin-1-yl)methyl]-3,4-dihydroisoquinolin-2(1H)-yl]carbonyl}phenyl)-N-(4-hydroxyphenyl)-N-(1H-indol-5-yl)-5-methyl-1H-pyrrole-3-carboxamide]	8.4	108		
Cc1cc(C(=O)N(c2ccc(O)cc2)c2ccc(F)cc2)cn1-c1cc(Br)ccc1C(=O)N1Cc2ccccc2C[C@H]1CN1CCN(C)CC1 [Example 50, 1-(5-Bromo-2-{[(3S)-3-[(4-methylpiperazin-1-yl)methyl]-3,4-dihydroisoquinolin-2(1H)-yl]carbonyl}phenyl)-N-(4-fluorophenyl)-N-(4-hydroxyphenyl)-5-methyl-1H-pyrrole-3-carboxamide]	7.4	301		
CN1CCN(C[C@@H]2Cc3ccccc3CN2C(=O)c2ccc(Cl)cc2-n2cc(C(=O)N(c3ccc(O)cc3)c3ccc(O)cc3)c3ccccc32)CC1 [Example 73, 1-(5-Chloro-2-{[(3S)-3-[(4-methylpiperazin-1-yl)methyl]-3,4-dihydroisoquinolin-2(1H)-yl]carbonyl}phenyl)-N,N-bis(4-hydroxyphenyl)-1H-indole-3-carboxamide]	3.9	51.4		
CC(=O)Oc1ccc(N(C(=O)c2cn(-c3cc4c(cc3C(=O)N3Cc5ccccc5C[C@H]3CN3CCN(C)CC3)OCO4)c3ccccc23)c2ccc(C)cc2)cc1 [Example 60, 4-[(4-Methylphenyl){[1-(6-{[(3S)-3-[(4-methylpiperazin-1-yl)methyl]-3,4-dihydroisoquinolin-2(1H)-yl]carbonyl}-1,3-benzodioxol-5-yl)-1H-indol-3-yl]-carbonyl}amino]phenyl acetate]	206		89.5	
NC[C@@H]1Cc2ccccc2CN1C(=O)c1cc2c(cc1-n1nc(C(=O)N(c3ccccc3)c3ccccc3)c3ccccc31)OCO2 [Example 132, 1-{6-[(3S)-3-(Aminomethyl)-1,2,3,4-tetrahydroisoquinoline-2-carbonyl]-2H-1,3-benzodioxol-5-yl}-N,N-diphenyl-1H-indazole-3-carboxamide]	31.7	1860		
COc1cc(-n2cc(C(=O)N(c3ccccc3)c3ccc(O)cc3)c3ccccc32)c(C(=O)N2Cc3ccccc3C[C@H]2CN2CCN(C)CC2)cc1O [Example 165, 1-{4-Hydroxy-5-methoxy-2-[(3S)-3-[(4-methylpiperazin-1-yl)methyl]-1,2,3,4-tetrahydroisoquinoline-2-carbonyl}phenyl]-N-(4-hydroxyphenyl)-N-phenyl-1H-indole-3-carboxamide dihydrochloride]	3.2	179		
Cc1cc(C(=O)N(c2ccc(O)cc2)c2ccc(Cl)cc2)cn1-c1cc(Br)ccc1C(=O)N1Cc2ccccc2C[C@H]1CN1CCN(C)CC1 [Example 62, 1-(5-Bromo-2-{[(3S)-3-[(4-methylpiperazin-1-yl)methyl]-3,4-dihydroisoquinolin-2(1H)-yl]carbonyl}phenyl)-N-(4-chlorophenyl)-N-(4-hydroxyphenyl)-5-methyl-1H-pyrrole-3-carboxamide]	7.5	205		
CN1CCN(C[C@@H]2Cc3ccccc3CN2C(=O)c2cc3c(cc2-n2cc(C(=O)N(c4ccc(O)cc4)c4ccc(F)c(F)c4)c4ccccc42)OCO3)CC1 [Example 56, N-(3,4-Difluorophenyl)-N-(4-hydroxyphenyl)-1-(6-{[(3S)-3-[(4-methylpiperazin-1-yl)methyl]-3,4-dihydroisoquinolin-2(1H)-yl]carbonyl}-1,3-benzodioxol-5-yl)-1H-indole-3-carboxamide]	5	135		
Cc1cc(C(=O)N(c2ccc(O)cc2)c2ccc(O)cc2)cn1-c1cc2c(cc1C(=O)N1Cc3ccccc3C[C@H]1CN1CCN(C)CC1)OCO2 [Example 83, N,N-bis(4-Hydroxyphenyl)-5-methyl-1-(6-{[(3S)-3-[(4-methylpiperazin-1-yl)methyl]-3,4-dihydroisoquinolin-2(1H)-yl]carbonyl}-1,3-benzodioxol-5-yl)-1H-pyrrole-3-carboxamide]	3.7	350		
COc1cc(-n2nc(C(=O)N(c3ccccc3)c3ccccc3)c3ccccc32)c(C(=O)N2Cc3ccccc3C[C@H]2CN)cc1OCc1ccccc1 [Example 134, 1-{2-[(3S)-3-(Aminomethyl)-1,2,3,4-tetrahydroisoquinoline-2-carbonyl]-4-(benzyloxy)-5-methoxyphenyl}-N,N-diphenyl-1H-indazole-3-carboxamide]		2100		72.1
Cc1cc(C(=O)N(c2ccc(O)cc2)c2ccc3c(ccn3C)c2)cn1-c1cc(Cl)c(F)cc1C(=O)N1Cc2ccccc2C[C@H]1CN1CCN(C)CC1 [Example 77, 1-(5-Chloro-4-fluoro-2-{[(3S)-3-[(4-methylpiperazin-1-yl)methyl]-3,4-dihydroisoquinolin-2(1H)-yl]carbonyl}phenyl)-N-(4-hydroxyphenyl)-5-methyl-N-(1-methyl-1H-indol-5-yl)-1H-pyrrole-3-carboxamide hydrochloride]	4.9	207		
Cc1cc(C(=O)N(c2ccc(O)cc2)c2ccc3c(c2)CCN3)cn1-c1cc2c(cc1C(=O)N1Cc3ccccc3C[C@H]1CN1CCN(C)CC1)OCO2 [Example 103, N-(2,3-Dihydro-1H-indol-5-yl)-N-(4-hydroxyphenyl)-5-methyl-1-(6-{[(3S)-3-[(4-methylpiperazin-1-yl)methyl]-3,4-dihydroisoquinolin-2(1H)-yl]carbonyl}-1,3-benzodioxol-5-yl)-1H-pyrrole-3-carboxamide hydrochloride]	17.4	523		
COc1ccc(C(=O)N2Cc3ccccc3C[C@H]2CN)c(-n2cc(C(=O)N(c3ccccc3)c3ccccc3)c3ccccc32)c1 [Example 147, 1-{2-[(3S)-3-(Aminomethyl)-1,2,3,4-tetrahydroisoquinoline-2-carbonyl]-5-methoxyphenyl}-N,N-diphenyl-1H-indole-3-carboxamide]	22.5	966		
Cc1cc(C(=O)N(c2ccccc2)c2ccc(O)cc2)cn1-c1cccc(Cl)c1C(=O)N1Cc2ccccc2C[C@H]1CN(C)C [Example 18, 1-(3-Chloro-2-{[(3S)-3-[(dimethylamino)methyl]-3,4-dihydroisoquinolin-2(1H)-yl]carbonyl}phenyl)-N-(4-hydroxyphenyl)-5-methyl-N-phenyl-1H-pyrrole-3-carboxamide]	44.6	1130		
Cc1cc(C(=O)N(c2ccc(O)cc2)c2ccc3c(ccn3CCN3CCOCC3)c2)cn1-c1cc2c(cc1C(=O)N1Cc3ccccc3C[C@H]1C)OCO2 [Example 116, N-(4-Hydroxyphenyl)-5-methyl-1-(6-{[(3R)-3-methyl-3,4-dihydroisoquinolin-2(1H)-yl]carbonyl}-1,3-benzodioxol-5-yl)-N-{1-[2-(morpholin-4-yl)ethyl]-1H-indol-5-yl}-1H-pyrrole-3-carboxamide hydrochloride]	12.1	131		
Cc1cc(C(=O)N(c2ccccc2)c2ccc3[nH]ccc3c2)cn1-c1ccccc1C(=O)N1Cc2ccccc2C[C@H]1CN(C)C [Example 10, 1-(2-{[(3S)-3-[(Dimethylamino)methyl]-3,4-dihydroisoquinolin-2(1H)-yl]carbonyl}phenyl)-N-(1H-indol-5-yl)-5-methyl-N-phenyl-1H-pyrrole-3-carboxamide]	146	2220		
CCCCN(C(=O)c1cn(-c2cc3c(cc2C(=O)N2Cc4ccccc4C[C@H]2CN2CCN(C)CC2)OCO3)c2ccccc12)c1ccc(O)cc1 [Example 33, N-Butyl-N-(4-hydroxyphenyl)-1-(6-{[(3S)-3-[(4-methylpiperazin-1-yl)methyl]-3,4-dihydroisoquinolin-2(1H)-yl]carbonyl}-1,3-benzodioxol-5-yl)-1H-indole-3-carboxamide]	4.4	199		
